Read-outs that look alike come from different tables or passages of the source.
Experiments:
[1] = system: A-549; assay: SRB colorimetric cell growth inhibition assay, A-549; format: cell-based; settings: Homo sapiens, A549, A-549; for GI50: GI=growth inhibition, read-out: GI50 A-549; for CC50: LC=cell killing (cytotoxic effect), read-out: LC50 A-549; for IC (TGI): TGI=total growth inhibition (cytostatic effect), read-out: TGI A-549
Method in brief: (§1)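 Cells are kept under uninterrupted exposure to compound. Staining with sulforhodamine B then measures cell growth and viability. Triplicate data give mean ± SD, from which growth inhibition, total growth inhibition and lethal concentration values follow.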

[2] = molecular target: T1, human topoisomerase I (Homo sapiens, UniProt P11387); assay: Topoisomerase I DNA relaxation assay (supercoiled plasmid DNA); format: biochemical; settings: supercoiled plasmid DNA, each compound tested at 1 μM, agarose gel with ethidium bromide
T1 sequence (P11387 1-765): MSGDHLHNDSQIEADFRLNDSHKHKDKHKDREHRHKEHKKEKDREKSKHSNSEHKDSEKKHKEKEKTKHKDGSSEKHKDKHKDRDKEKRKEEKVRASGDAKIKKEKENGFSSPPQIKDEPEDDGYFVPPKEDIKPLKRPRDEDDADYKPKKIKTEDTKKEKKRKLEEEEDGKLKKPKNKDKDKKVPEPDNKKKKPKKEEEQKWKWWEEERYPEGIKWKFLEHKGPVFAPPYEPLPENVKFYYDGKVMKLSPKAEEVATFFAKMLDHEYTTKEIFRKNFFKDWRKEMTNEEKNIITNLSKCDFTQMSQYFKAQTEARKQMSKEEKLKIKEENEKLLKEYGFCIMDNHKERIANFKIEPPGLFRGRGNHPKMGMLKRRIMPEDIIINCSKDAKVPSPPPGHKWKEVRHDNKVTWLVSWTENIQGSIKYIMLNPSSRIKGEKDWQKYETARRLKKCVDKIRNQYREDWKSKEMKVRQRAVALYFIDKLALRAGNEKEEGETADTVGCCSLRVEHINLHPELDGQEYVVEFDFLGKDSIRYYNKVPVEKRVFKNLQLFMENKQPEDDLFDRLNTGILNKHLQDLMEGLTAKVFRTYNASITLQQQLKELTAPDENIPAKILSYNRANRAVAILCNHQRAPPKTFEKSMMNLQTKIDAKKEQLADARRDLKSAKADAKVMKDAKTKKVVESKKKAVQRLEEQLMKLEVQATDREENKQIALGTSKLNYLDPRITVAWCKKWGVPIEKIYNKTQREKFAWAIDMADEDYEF
Method in brief: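 Supercoiled plasmid DNA was relaxed by human topoisomerase I with or without test compound at 1 μM. Products were resolved by agarose gel electrophoresis with ethidium bromide staining.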

[3] = system: LNCaP; assay: SRB colorimetric cell growth inhibition assay, LNCaP; format: cell-based; settings: Homo sapiens, LNCaP, LN-caP; for GI50: GI=growth inhibition, read-out: GI50 LN-caP; for CC50: LC=cell killing (cytotoxic effect), read-out: LC50 LN-caP; for IC (TGI): read-out: TGI LN-caP
Method in brief: as §1

[4] = system: SK-MEL-28; assay: SRB colorimetric cell growth inhibition assay, SK-MEL-28; format: cell-based; settings: Homo sapiens, SK-MEL-28, MEL-28; for GI50: GI=growth inhibition, read-out: GI50 MEL-28; for CC50: LC=cell killing (cytotoxic effect), read-out: LC50 MEL-28; for IC (TGI): read-out: TGI MEL-28
Method in brief: as §1

[5] = system: PANC-1; assay: SRB colorimetric cell growth inhibition assay, PANC-1; format: cell-based; settings: Homo sapiens; for CC50: LC=cell killing (cytotoxic effect), read-out: LC50 PANC-1; for IC (TGI): TGI=total growth inhibition (cytostatic effect), read-out: TGI PANC-1; for GI50: GI=growth inhibition, read-out: GI50 PANC-1
Method in brief: as §1

[6] = system: LoVo-Dox; assay: SRB colorimetric cell growth inhibition assay, LoVo-Dox (MDR); format: cell-based
Method in brief: as §1

[7] = system: SK-BR-3; assay: SRB colorimetric cell growth inhibition assay, SK-BR-3; format: cell-based; settings: Homo sapiens; for CC50: LC=cell killing (cytotoxic effect), read-out: LC50 SK-BR-3; for GI50: GI=growth inhibition, read-out: GI50 SK-BR-3; for IC (TGI): read-out: TGI SK-BR-3
Method in brief: as §1

[8] = system: HT-29; assay: SRB colorimetric cell growth inhibition assay, HT-29; format: cell-based; settings: Homo sapiens; for CC50: LC=cell killing (cytotoxic effect), read-out: LC50 HT-29; for GI50: GI=growth inhibition, read-out: GI50 HT-29; for IC (TGI): TGI=total growth inhibition (cytostatic effect), read-out: TGI HT-29
Method in brief: as §1

[9] = system: DU-145; assay: SRB colorimetric cell growth inhibition assay, DU-145; format: cell-based; settings: Homo sapiens; for CC50: LC=cell killing (cytotoxic effect), read-out: LC50 DU-145; for GI50: GI=growth inhibition, read-out: GI50 DU-145; for IC (TGI): read-out: TGI DU-145
Method in brief: as §1

[10] = system: LoVo; assay: SRB colorimetric cell growth inhibition assay, LoVo; format: cell-based; settings: Homo sapiens; for CC50: LC=cell killing (cytotoxic effect), read-out: LC50 LOVO; for GI50: GI=growth inhibition, read-out: GI50 LOVO; for IC (TGI): TGI=total growth inhibition (cytostatic effect), read-out: TGI LOVO
Method in brief: as §1

[11] = system: K-562; assay: SRB colorimetric cell growth inhibition assay, K-562; format: cell-based; settings: Homo sapiens, K562, K-562; for GI50: GI=growth inhibition, read-out: GI50 K-562; for CC50: LC=cell killing (cytotoxic effect), read-out: LC50 K-562; for IC (TGI): TGI=total growth inhibition (cytostatic effect), read-out: TGI K-562
Method in brief: as §1

[12] = system: IGROV-ET; assay: SRB colorimetric cell growth inhibition assay, IGROV-ET (ET-743 resistant); format: cell-based; settings: Homo sapiens, IGROV-ET; for GI50: GI=growth inhibition, read-out: GI50 IGROV-ET; for CC50: LC=cell killing (cytotoxic effect), read-out: LC50 IGROV-ET; for IC (TGI): read-out: TGI IGROV-ET
Method in brief: as §1

[13] = system: IGROV; assay: SRB colorimetric cell growth inhibition assay, IGROV; format: cell-based
Method in brief: as §1

[14] = total growth inhibition (cytostatic effect)
[15] = Homo sapiens, LOVO-DOX; GI=growth inhibition; read-out: GI50 LOVO-DOX
[16] = Homo sapiens, LOVO-DOX; LC=cell killing (cytotoxic effect); read-out: LC50 LOVO-DOX
[17] = Homo sapiens, IGROV; LC=cell killing (cytotoxic effect); read-out: LC50 IGROV
[18] = TGI=total growth inhibition (cytostatic effect)
[19] = Homo sapiens, LOVO-DOX; TGI=total growth inhibition (cytostatic effect); read-out: TGI LOVO-DOX
[20] = SK-BR-3, SK-BR-3, TGI=total growth inhibition (cytostatic effect)
[21] = DU-145, DU-145, TGI=total growth inhibition (cytostatic effect)
[22] = Homo sapiens, IGROV; GI=growth inhibition; read-out: GI50 IGROV
[23] = Homo sapiens, IGROV; TGI=total growth inhibition (cytostatic effect); read-out: TGI IGROV

Compound	GI50 [1] [µM]	CC50 [1] [µM]	IC (TGI) [1] [µM]	stimulation of DNA cleavage by topoisomerase I / inhibition of topoisomerase I (nicked DNA band) in DNA relaxation assay [2]	GI50 [3] [µM]	CC50 [3] [µM]	GI50 [4] [µM]	CC50 [4] [µM]	CC50 ([5]; PANC-1, PANC-1) [µM]	IC (TGI) ([5]; PANC-1, PANC-1) [µM]	GI50 [6, 15] [µM]	CC50 [6, 16] [µM]	CC50 ([7]; SK-BR-3, SK-BR-3) [µM]	CC50 ([8]; HT-29, HT-29) [µM]	CC50 ([9]; DU-145, DU-145) [µM]	CC50 ([10]; LoVo) [µM]	GI50 [11] [µM]	CC50 [11] [µM]	IC (TGI) [11] [µM]	GI50 [12] [µM]	also measured
COc1cc(-c2c3c4cc(OC)c(OC(=O)[C@@H](NC(=O)OC(C)(C)C)C(C)C)cc4oc(=O)c3n3ccc4cc(OC(=O)[C@@H](NC(=O)OC(C)(C)C)C(C)C)c(OC)cc4c23)ccc1OC(=O)[C@@H](NC(=O)OC(C)(C)C)C(C)C [Compound 38]	1.34	9.11	4.78	No effect	0.152	3.9	0.165	9.11	9.11	9.11	9.11	9.11	9.11	9.11	9.11	9.11	0.0413	9.11	1.15	1.29	IC (TGI) [3, 14]: 0.509 µM; IC (TGI) [4, 14]: 0.52 µM; GI50 ([5]; PANC-1): 0.499 µM; IC (TGI) ([6]; Homo sapiens; LOVO-DOX; TGI=total growth inhibition (cytostatic effect); read-out: TGI LOVO-DOX): 9.11 µM; GI50 ([7]; SK-BR-3): 0.448 µM; IC (TGI) ([7]; SK-BR-3, total growth inhibition (cytostatic effect)): 4.08 µM; GI50 ([8]; HT-29): 0.0324 µM; IC (TGI) ([8]; HT-29): 0.0911 µM; GI50 ([9]; DU-145): 0.0512 µM; IC (TGI) ([9]; DU-145, total growth inhibition (cytostatic effect)): 9.11 µM; GI50 ([10]; LOVO): 9.11 µM; IC (TGI) ([10]; LOVO): 9.11 µM; CC50 [12]: 9.11 µM; IC (TGI) [12, 14]: 4.51 µM; CC50 [13, 17]: 9.11 µM; GI50 ([13]; Homo sapiens; IGROV; GI=growth inhibition; read-out: GI50 IGROV): 0.244 µM; IC (TGI) ([13]; Homo sapiens; IGROV; total growth inhibition (cytostatic effect); read-out: TGI IGROV): 1.07 µM
COc1cc(-c2c3c4cc(OC)c(OC(=O)[C@@H](N)CC(C)C)cc4oc(=O)c3n3ccc4cc(OC(=O)[C@@H](N)CC(C)C)c(OC)cc4c23)ccc1OC(=O)[C@@H](N)CC(C)C [Compound 39]	0.0464	8.47	0.855	marked inhibition of topoisomerase I	0.0279	8.47	0.0339	8.47	8.47	8.47	0.323	8.47	8.47	8.47	8.47	8.47	0.0359	8.47	1.08	0.055	IC (TGI) [3, 18]: 0.252 µM; IC (TGI) [4, 18]: 0.295 µM; GI50 ([5]; PANC-1, PANC-1): 0.164 µM; IC (TGI) [6, 19]: 1.81 µM; GI50 ([7]; SK-BR-3, SK-BR-3): 0.0545 µM; IC (TGI) [7, 20]: 1.46 µM; GI50 ([8]; HT-29, HT-29): 3.04 µM; IC (TGI) ([8]; HT-29, HT-29): 8.47 µM; GI50 ([9]; DU-145, DU-145): 0.018 µM; IC (TGI) [9, 21]: 0.142 µM; GI50 ([10]; LoVo): 0.321 µM; IC (TGI) ([10]; LoVo): 2.53 µM; CC50 [12]: 8.47 µM; IC (TGI) [12, 18]: 0.369 µM; GI50 [13, 22]: 0.0341 µM; CC50 [13, 17]: 8.47 µM; IC (TGI) [13, 23]: 0.931 µM
COc1cc(-c2c3c4cc(OC)c(OC(=O)[C@H](C)N)cc4oc(=O)c3n3ccc4cc(OC(=O)[C@H](C)N)c(OC)cc4c23)ccc1OC(=O)[C@H](C)N [Compound 40]	0.0316	9.48	0.27	marked inhibition of topoisomerase I	0.13	4.38	0.0412	9.48	9.48	3.27	0.47	9.48	9.48	9.48	9.48	6.41	0.0582	4.61	0.986	0.0852	IC (TGI) [3, 18]: 0.447 µM; IC (TGI) [4, 18]: 0.595 µM; GI50 ([5]; PANC-1, PANC-1): 0.254 µM; IC (TGI) [6, 19]: 3.35 µM; GI50 ([7]; SK-BR-3, SK-BR-3): 0.816 µM; IC (TGI) [7, 20]: 3.25 µM; GI50 ([8]; HT-29, HT-29): 3.57 µM; IC (TGI) ([8]; HT-29, HT-29): 9.48 µM; GI50 ([9]; DU-145, DU-145): 0.0162 µM; IC (TGI) [9, 21]: 0.094 µM; GI50 ([10]; LoVo): 0.223 µM; IC (TGI) ([10]; LoVo): 0.884 µM; CC50 [12]: 9.48 µM; IC (TGI) [12, 18]: 0.557 µM; GI50 [13, 22]: 0.0449 µM; CC50 [13, 17]: 5.04 µM; IC (TGI) [13, 23]: 0.391 µM
